Measurements reported in PubChem BioAssay AID1845206 (Molecular Pharmacology Branch, DTP, NCI, 2023).
Several values for one entry are separate records, joined by “and”; a condition that tells them apart may be missing. Equal entries are not always repeated. Activity calls are given as the source filed them. Rule for the calls: active = viability on the fitted dose curve at most 10% of control; inactive = the rest.

Tested on: NCI-H1618 multicellular tumor spheroid viability
Assay: Anticancer human tumor NCI-H1618 cell line growth inhibition;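 note: spheroids exposed to agents for 7 days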
Settings: for viability, T/C: stronger effect = lower value
In short: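 Complex spheroids of malignant cells with endothelial cells and mesenchymal stem cells; agents alone or combined, from near clinical Cmax (or 10 microM if unknown) down in half-log steps, 0.25% DMSO final.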

[1] = curve of first compound, second compound 0.003 µM
[2] = curve of first compound, second compound 0.00949 µM
[3] = curve of first compound, second compound 0.03 µM
[4] = curve of first compound, second compound 0.0949 µM
[5] = curve of first compound, second compound 0.3 µM
[6] = second compound 0.003 µM, first compound 0.0316 µM
[7] = second compound 0.003 µM, first compound 0.1 µM
[8] = second compound 0.003 µM, first compound 0.316 µM
[9] = second compound 0.003 µM, first compound 1 µM
[10] = second compound 0.003 µM, first compound 3.16 µM
[11] = second compound 0.003 µM, first compound 10 µM
[12] = second compound 0.00949 µM, first compound 0.0316 µM
[13] = second compound 0.00949 µM, first compound 0.1 µM
[14] = second compound 0.00949 µM, first compound 0.316 µM
[15] = second compound 0.00949 µM, first compound 1 µM
[16] = second compound 0.00949 µM, first compound 3.16 µM
[17] = second compound 0.00949 µM, first compound 10 µM
[18] = second compound 0.03 µM, first compound 0.0316 µM
[19] = second compound 0.03 µM, first compound 0.1 µM
[20] = second compound 0.03 µM, first compound 0.316 µM
[21] = second compound 0.03 µM, first compound 1 µM
[22] = second compound 0.03 µM, first compound 3.16 µM
[23] = second compound 0.03 µM, first compound 10 µM
[24] = second compound 0.0949 µM, first compound 0.0316 µM
[25] = second compound 0.0949 µM, first compound 0.1 µM
[26] = second compound 0.0949 µM, first compound 0.316 µM
[27] = second compound 0.0949 µM, first compound 1 µM
[28] = second compound 0.0949 µM, first compound 3.16 µM
[29] = second compound 0.0949 µM, first compound 10 µM
[30] = second compound 0.3 µM, first compound 0.0316 µM
[31] = second compound 0.3 µM, first compound 0.1 µM
[32] = second compound 0.3 µM, first compound 0.316 µM
[33] = second compound 0.3 µM, first compound 1 µM
[34] = second compound 0.3 µM, first compound 3.16 µM
[35] = second compound 0.3 µM, first compound 10 µM

COc1ccc([C@@H](O)c2cc(-c3ncnc4cc(N5CCOCC5)ccc34)c(F)cc2Cl)nn1 + CC[C@@]1(O)C(=O)OCc2c1cc1n(c2=O)Cc2cc3c(CN(C)C)c(O)ccc3nc2-1
< 31.6 nM: IC50 [2] | IC50 [3] | IC50 [4] | IC50 [5]
active: viability, T/C [18] 2.44% | viability, T/C [19] 3.37% | viability, T/C [20] 3.22% | viability, T/C [21] 2.13% | viability, T/C [22] 2.99% | viability, T/C [23] 0.99% | viability, T/C [24] 4.05% | viability, T/C [25] 2.6% | viability, T/C [26] 6.24% | viability, T/C [27] 2.56% | viability, T/C [28] 1.11% | viability, T/C [29] 1.58% | viability, T/C [30] 2.38% | viability, T/C [31] 2.02% | viability, T/C [32] 2.24% | viability, T/C [33] 2.64% | viability, T/C [34] 1.97% | viability, T/C [35] 0.5%
2580 nM: IC50 [1]
inactive: viability, T/C [6] 98.9% | viability, T/C [7] 71.7% | viability, T/C [8] 95.3% | viability, T/C [9] 77% | viability, T/C [10] 44.2% | viability, T/C [11] 14.9% | viability, T/C [12] 42.3% | viability, T/C [13] 27.2% | viability, T/C [14] 54% | viability, T/C [15] 48.5% | viability, T/C [16] 36% | viability, T/C [17] 11.8%

COc1ccc([C@@H](O)c2cc(-c3ncnc4cc(N5CCOCC5)ccc34)c(F)cc2Cl)nn1
inactive: viability, T/C (compound 0.0316 µM) 84% and 103% and 101% | viability, T/C (compound 0.1 µM) 109% and 97.9% and 84.5% | viability, T/C (compound 0.316 µM) 108% and 103% and 83.4% | viability, T/C (compound 1 µM) 98.4% and 98.8% and 76% | viability, T/C (compound 3.16 µM) 84.1% and 83% and 83.7% | viability, T/C (compound 10 µM) 22.8% and 78.7% and 32.8%
6000 nM and > 10000 nM and 6750 nM: IC50 (curve of compound)

CC[C@@]1(O)C(=O)OCc2c1cc1n(c2=O)Cc2cc3c(CN(C)C)c(O)ccc3nc2-1
9.37 nM [middle of 5 runs]: IC50 (compound alone, run of 11/07/2019)
1.94% [middle of 9 runs]: viability, T/C (compound 0.3 µM)

CC(C)n1c(=O)n(C)c2cnc3cc(F)c(-c4ccc(OCCCN5CCCCC5)nc4)cc3c21
> 10000 nM: IC50 (curve of compound)
inactive: viability, T/C (compound 0.0316 µM) 92.6% and 97.3% and 82.8% | outcome (compound 0.1 µM) | viability, T/C (compound 0.1 µM) 93.1% and 105% | viability, T/C (compound 0.316 µM) 85.2% and 96.6% and 100% | outcome (compound 1 µM) | viability, T/C (compound 1 µM) 80.8% and 86.8% | viability, T/C (compound 3.16 µM) 75.5% and 87.7% and 75.1% | viability, T/C (compound 10 µM) 58.1% and 89.4% and 54.3%

Cc1cc(C)c(CNC(=O)c2cc(-c3ccc(CN4CCOCC4)cc3)cc3c2cnn3C2CCCC2)c(=O)[nH]1 + CC[C@@]1(O)C(=O)OCc2c1cc1n(c2=O)Cc2cc3c(CN(C)C)c(O)ccc3nc2-1
active: viability, T/C [18] 1.8% | viability, T/C [19] 1.58% | viability, T/C [20] 1.81% | viability, T/C [21] 1.82% | viability, T/C [22] 1.84% | viability, T/C [23] 18.6% | viability, T/C [24] 1.32% | viability, T/C [25] 1.44% | viability, T/C [26] 1.43% | viability, T/C [27] 2.27% | viability, T/C [28] 1.46% | viability, T/C [29] 2.04% | viability, T/C [31] 1.25% | viability, T/C [32] 1.16% | viability, T/C [33] 1.34% | viability, T/C [34] 1.57% | viability, T/C [35] 19.7%
> 10000 nM: IC50 [1]
inactive: viability, T/C [6] 90.8% | viability, T/C [7] 94.2% | viability, T/C [8] 94.5% | viability, T/C [9] 88.5% | viability, T/C [10] 83.1% | viability, T/C [11] 76.2% | viability, T/C [12] 58.5% | viability, T/C [13] 38.5% | viability, T/C [14] 51% | viability, T/C [15] 27.2% | viability, T/C [16] 17.3% | viability, T/C [17] 12.7% | viability, T/C [30] 19.2%
< 31.6 nM: IC50 [2] | IC50 [3] | IC50 [4] | IC50 [5]
